From patent US8039496B2, “Therapeutic compounds” (Allergan, Inc., priority 2007, dated 2011)

What was measured:
[1] = tested on: normotensive dogs; assay: Ocular surface hyperemia in normotensive dogs; type: in vivo; design: scale not given here; conditions: once daily for 5 days
Method: (§1) U.S. Pat. No. 7,091,231 describes the methods used for these in vivo tests. 5-{3-[1R,2S,3R,5R)-5-Chloro-2-(3,5-dichloro-phenoxymethyl)-3-hydroxy-cyclopentyl]-propyl}-thiophene-2-carboxylic acid was tested at multiple concentrations in normotensive dogs, dosing once daily for 5 days. At 0.1%, the maximum intraocular pressure (IOP) decrease from baseline was 7.5 mmHg (48%) at 30 h; the maximum ocular surface hyperemia (OSH) score was 2.75 at 26 h. At 0.01%, the maximum IOP decrease from baseline was 7.5 mmHg (43%) at 76 h; the maximum OSH score was 2.0 at 26 h. At 0.005%, the maximum IOP decrease from baseline was 6.6 mmHg (35%) at 78 h; the maximum OSH score was 1.75 at 74 h. This compound was also tested in laser-induced hypertensive monkeys, using one single day dose. At 0.01%, the maximum IOP decrease from baseline was 20.2 mmHg (53%) at 24 h.

[2] = tested on: laser-induced hypertensive monkeys; assay: Intraocular pressure in laser-induced hypertensive monkeys; type: in vivo; conditions: one single day dose
Method: as §1

[3] = tested on: normotensive dogs; assay: Intraocular pressure in normotensive dogs; type: in vivo; conditions: Canis lupus familiaris, topical, 120 h, once daily for 5 days, read-out: maximum IOP decrease from baseline (percent)
Method: as §1

[4] = target: T1, hEP4 (Homo sapiens, UniProt P35408); assay: hEP4 flipr functional assay; type: cell-based; conditions: the 3rd table; read-out: EP4 data flipr EC50
T1 sequence (P35408 whole entry): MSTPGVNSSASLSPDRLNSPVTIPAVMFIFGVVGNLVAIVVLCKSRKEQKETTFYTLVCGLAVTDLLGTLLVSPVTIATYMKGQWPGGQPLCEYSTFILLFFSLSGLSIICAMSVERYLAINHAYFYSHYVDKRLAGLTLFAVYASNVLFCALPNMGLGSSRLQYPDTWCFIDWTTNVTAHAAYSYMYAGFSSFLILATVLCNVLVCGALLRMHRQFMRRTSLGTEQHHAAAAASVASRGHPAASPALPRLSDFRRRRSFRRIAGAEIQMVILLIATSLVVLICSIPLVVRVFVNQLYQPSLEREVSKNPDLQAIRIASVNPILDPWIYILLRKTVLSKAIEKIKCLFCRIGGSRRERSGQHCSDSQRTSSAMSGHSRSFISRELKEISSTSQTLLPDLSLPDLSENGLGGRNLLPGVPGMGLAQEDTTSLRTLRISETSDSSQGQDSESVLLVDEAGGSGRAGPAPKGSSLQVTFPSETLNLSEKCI
Description: (§2) U.S. patent application Ser. No. 11/553,143, filed on Oct. 26, 2006, describes the methods used to obtain the in vitro data in the table below.

[5] = target: T1, hEP4; assay: hEP4 binding (Ki); conditions: the 3rd table; read-out: EP4 data KI
Description: as §2

[6] = target: T2, hEP3 (Homo sapiens, UniProt P43115); assay: Other receptors: hEP3 / hEP3A; type: cell-based; conditions: the 3rd table; read-out: Other Receptors (ED50 in nM) hEP3A
T2 sequence (P43115 1-390): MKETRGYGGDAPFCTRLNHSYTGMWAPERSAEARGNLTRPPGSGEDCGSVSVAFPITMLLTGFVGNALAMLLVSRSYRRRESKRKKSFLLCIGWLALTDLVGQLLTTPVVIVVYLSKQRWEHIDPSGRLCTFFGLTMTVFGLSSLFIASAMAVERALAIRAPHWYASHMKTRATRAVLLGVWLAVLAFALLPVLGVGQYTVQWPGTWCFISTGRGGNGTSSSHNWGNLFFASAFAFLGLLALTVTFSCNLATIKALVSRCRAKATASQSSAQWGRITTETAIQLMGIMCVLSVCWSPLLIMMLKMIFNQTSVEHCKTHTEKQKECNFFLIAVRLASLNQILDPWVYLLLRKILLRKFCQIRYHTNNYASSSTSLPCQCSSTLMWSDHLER
Description: as §2

[7] = target: T3, hEP2 (Homo sapiens, UniProt P43116); assay: hEP2 flipr functional assay; type: cell-based; conditions: the 3rd table; read-out: EP2 data flipr EC50
T3 sequence (P43116 whole entry): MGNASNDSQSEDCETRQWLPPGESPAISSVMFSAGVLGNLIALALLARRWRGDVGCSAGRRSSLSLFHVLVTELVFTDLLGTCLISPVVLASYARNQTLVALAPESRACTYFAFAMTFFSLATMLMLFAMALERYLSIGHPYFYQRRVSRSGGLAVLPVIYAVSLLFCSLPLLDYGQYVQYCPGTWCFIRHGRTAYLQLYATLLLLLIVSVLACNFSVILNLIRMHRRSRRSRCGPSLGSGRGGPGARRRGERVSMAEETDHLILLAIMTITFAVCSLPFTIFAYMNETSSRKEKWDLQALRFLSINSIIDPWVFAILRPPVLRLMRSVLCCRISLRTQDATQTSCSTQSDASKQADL
Description: as §2

[8] = target: T3, hEP2; assay: hEP2 binding (Ki); conditions: the 3rd table; read-out: EP2 data Ki
Description: as §2

[9] = target: T3, hEP2; assay: hEP2 cAMP functional assay; type: cell-based; conditions: the 3rd table; read-out: EP2 data cAMP EC50
Description: as §2

[10] = target: T4, hDP (Homo sapiens, UniProt Q13258); assay: Other receptors: hDP; type: cell-based; conditions: the 3rd table; read-out: Other Receptors (ED50 in nM) hDP
T4 sequence (Q13258 1-359): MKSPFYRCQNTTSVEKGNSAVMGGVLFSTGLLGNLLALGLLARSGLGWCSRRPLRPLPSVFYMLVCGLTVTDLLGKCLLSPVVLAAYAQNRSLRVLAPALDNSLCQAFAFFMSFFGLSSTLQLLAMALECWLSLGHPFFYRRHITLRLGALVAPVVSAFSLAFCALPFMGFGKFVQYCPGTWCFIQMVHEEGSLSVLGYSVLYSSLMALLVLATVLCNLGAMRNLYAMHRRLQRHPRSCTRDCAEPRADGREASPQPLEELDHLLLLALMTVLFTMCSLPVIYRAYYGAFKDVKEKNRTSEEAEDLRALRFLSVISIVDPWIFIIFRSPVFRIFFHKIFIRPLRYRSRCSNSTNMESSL
Description: as §2

Row | Compound | maximum ocular surface hyperemia (OSH) score ([1]; 0.1%) | EC50 [4] [µM] | Ki [5] [µM] | EC50 [7] [µM] | Ki [8] [µM] | EC50 [9] [µM] | EC50 [10] [nM] | inhibition in vivo at 0.1 % [3] [%] | maximum IOP decrease from baseline ([2]; 0.1%) [mmHg] | maximum IOP decrease from baseline (percent) ([2]; 0.1%) [%] | also measured
1 | O=C(O)c1ccc(CCC[C@@H]2[C@@H](COc3cc(Cl)cc(Cl)c3)[C@H](O)C[C@H]2Cl)s1 [Example 4, 5-{3-[(1R,2S,3R,5R)-5-Chloro-2-(3,5-dichloro-phenoxymethyl)-3-hydroxy-cyclopentyl]-propyl}-thiophene-2-carboxylic acid] | 2.75 | – | – | – | – | – | – | 48 | – | – | maximum ocular surface hyperemia (OSH) score ([1]; 0.005%): 1.75; maximum ocular surface hyperemia (OSH) score ([1]; 0.01%): 2.0; maximum IOP decrease from baseline ([2]; 0.01%): 20.2 mmHg; maximum IOP decrease from baseline (percent) ([2]; 0.01%): 53%; inhibition in vivo at 0.005 % ([3]; 0.005%): 35%; inhibition in vivo at 0.01 % ([3]; 0.01%): 43%
2 | O=C(O)c1ccc(CCC[C@@H]2[C@@H](COc3ccc(Cl)c4ccccc34)[C@H](O)C[C@H]2Cl)s1 [5-(3-((1R,2S,3R,5R)-5-chloro-2-((4-chloronaphthalen-1-yloxy)methyl)-3-hydroxycyclopentyl)propyl)thiophene-2-carboxylic acid] | – | 15 | 1.93 | 3.53 | 0.01 | 0.0025 | 13500 | – | – | – | –
3 | O=C(O)c1ccc(CCC[C@@H]2[C@@H](COc3ccccc3)[C@H](O)C[C@H]2Cl)s1 [5-(3-((1R,2S,3R,5R)-5-chloro-3-hydroxy-2-(phenoxymethyl)cyclopentyl)propyl)thiophene-2-carboxylic acid] | – | 8.42 | 2.32 | 0.235 | 0.029 | 0.0034 | 9090 | – | – | – | EC50 [6]: 9650 nM
4 | Cc1cc(OC[C@@H]2[C@@H](CCCc3ccc(C(=O)O)s3)[C@H](Cl)C[C@H]2O)cc(C)c1Cl [5-(3-((1R,2S,3R,5R)-5-chloro-2-((4-chloro-3,5-dimethylphenoxy)methyl)-3-hydroxycyclopentyl)propyl)thiophene-2-carboxylic acid] | – | > 10 | 0.17 | 1.49 | 0.0007 | 0.0002 | 7190 | – | – | – | –
5 | CC(C)OC(=O)CCC/C=C\C[C@@H]1[C@@H](COc2cc(Cl)cc(CO)c2)[C@H](O)C[C@H]1Cl [Example 12, (Z)-Isopropyl 7-((1R,2S,3R,5R)-5-chloro-2-((3-chloro-5-(hydroxymethyl)phenoxy)methyl)-3-hydroxycyclopentyl)hept-5-enoate] | 0.8 | – | – | – | – | – | – | 33 | 7.4 | 21 | –
6 | CC(=O)OCc1cc(Cl)cc(OC[C@@H]2[C@@H](C/C=C\CCCC(=O)OC(C)C)[C@H](Cl)C[C@H]2O)c1 [Example 13, (Z)-Isopropyl 7-((1R,2S,3R,5R)-2-((3-(acetoxymethyl)-5-chlorophenoxy)methyl)-5-chloro-3-hydroxycyclopentyl)hept-5-enoate] | 0.7 | – | – | – | – | – | – | 20 | 8.2 | 21 | –

Now from value to compound, other results behind:

Row | maximum ocular surface hyperemia (OSH) score ([1]; 0.1%) | EC50 [4] [µM] | Ki [5] [µM] | EC50 [7] [µM] | Ki [8] [µM] | EC50 [9] [µM] | EC50 [10] [nM] | Compound | inhibition in vivo at 0.1 % [3] [%] | maximum IOP decrease from baseline ([2]; 0.1%) [mmHg] | maximum IOP decrease from baseline (percent) ([2]; 0.1%) [%] | also measured
7 | – | 9.83 | 1.46 | 0.175 | 0.037 | 0.0025 | 8620 | O=C(O)c1ccc(CCC[C@@H]2[C@@H](COc3cccc4c3CCCC4)[C@H](O)C[C@H]2Cl)s1 [5-(3-((1R,2S,3R,5R)-5-chloro-3-hydroxy-2-((5,6,7,8-tetrahydronaphthalen-1-yloxy)methyl)cyclopentyl)propyl)thiophene-2-carboxylic acid] | – | – | – | EC50 [6]: 5790 nM
8 | 0.9 | – | – | – | – | – | – | O=C(O)CCC/C=C\C[C@@H]1[C@@H](COc2cc(Cl)cc(CO)c2)[C@H](O)C[C@H]1Cl [(Z)-7-[(1R,2S,3R,5R)-5-Chloro-2-(3-chloro-5-hydroxymethyl-phenoxymethyl)-3-hydroxy-cyclopentyl]-hept-5-enoic acid] | 13.5 | 8 | 21 | –
